Measurements from patent US20100221709A1, “METHODS FOR IDENTIFYING AGENTS THAT MODULATE APOPTOSIS IN CELLS THAT OVER-EXPRESS A BCL-2 FAMILY MEMBER PROTEIN” (priority 2005, published 2010).

Legend:
[1] = test system: mitochondria from TABX2S cells; experiment: Rhodamine 123 retention assay, isolated mitochondria; assay type: biochemical, murine; settings: five minutes after addition
Procedure: (§1) Rh-123 is a cationic lipid-soluble fluorescent dye that accumulates in mitochondria in proportion to the mitochondrial membrane potential. Mitochondria were isolated from TABX2S cells (over-expressing Bcl-xL) and from control cells, prepared as described in Example 2. The isolated mitochondria were loaded with Rh-123 by incubation with 10 μM Rh-123 for 30 minutes, washing and resuspention in buffer. […] Less than 40% of Rh-123 was retained in antimycin A-treated TABX2S mitochondria, compared with greater than 80% retained in control mitochondria.

control mitochondria = experiment: as above; assay type: biochemical, murine; settings: five minutes after addition
Procedure: as §1

[2] = test system: TABX2S cells (over-expressing Bcl-xL); experiment: in vitro
Description: Briefly, a DNA fragment encoding the full-length mouse Bcl-xL cDNA was isolated from the plasmid pBS-BCL-xL (Tzung et al., Am. J. Path. 150:1985-1995 (1997), incorporated herein by reference in its entirety) by digestion with the restriction endonuclease EcoRI. This EcoRI fragment was cloned into the EcoRI site of the mammalian expression vector pSFFV (Fuhlbrigge et al., Proc. Nat. Acad. Sci. USA 85:5649-5653 (1988)) in both sense and antisense orientations, to form expression plasmids pSFFV-Bc/-xL-WT(sense) or pSFFV-Bc/-xL(antisense), respectively. The tumorigenic murine hepatocyte cell line TAMH was transfected by lipofection (Lipofectamine, Life Technologies, Rockville, Md., according to the manufacturer's recommendations) with the plasmids pSFFV-neo (the control), pSFFV-Bc/-xL-WT(sense) or pSFFV-Bc/-xL(antisense). Characterization of and culture conditions for the cell lines have been previously published (Wu et al., Proc. Nat. Acad. Sci. USA 91:674-78 (1994); Wu et al., Cancer Res. 54:5964-5973 (1994)). Transfectants were selected for the acquisition of neomycin resistance by growing cells in the presence of 750 μg/ml of G418. Bulk transfectants were cloned by limiting dilution and individual clones were screened by immunoblot analysis to determine the level of Bcl-xL, protein expression as described below.
Selected transfectants were then tested for whole cell sensitivity to several apoptotic agents. Transfected cells were cultured to reach approximately 80% confluency prior to plating an equal number of cells from selected clones on 12-well tissue culture plates. The transplanted cells were treated with the following apoptotic agents: 5 μM doxorubicin for 48 hours; 5 μM cisplatin for 48 hours; or with 200 U/ml tumor necrosis factor (TNF) plus 1 μg/ml actinomycin D for 18 hours. Cell viability was determined by trypan blue dye exclusion. The percentage of viable cells was calculated by the number of viable cells (treated with a particular apoptogenic agent) divided by the number in the control group (untreated).
TABX2S cells and TABX1A cells were also examined for the effects of various mitochondrial inhibitors. […] Azide was diluted from an aqueous stock solution.

Bcl-xLΔC20 = target: T1, Bcl-xLΔC20 (Homo sapiens, UniProt Q07817); experiment: Calcein leakage from large unilamellar vesicles (pore formation); assay type: biochemical; settings: 12 μM
T1 construct: poly-His (N); made in house
Procedure: The Bcl-xL protein has reversible pore-forming activity. Recombinant human Bcl-xL lacking the C-terminal 20-residue membrane anchor sequence, Bcl-xLΔC20, forms pores in large unilamellar vesicles. A reporter, calcein, can leak out of the vesicles through these pores.
Large unilamellar vesicles composed of 60% dioleoylphosphatidylcholine and 40% oleoylphosphatidylglycerol were prepared by the extrusion method of Mayer et al. (Biochim. Biophys. Acta 858:161-168 (1986)). Briefly, a dry film of lipid was resuspended in an aqueous solution containing 40 mM calcein (Molecular Probes, Eugene, Oreg.), 25 mM KCl and 10 mM HEPES (pH 7.0). […] The size of the vesicle suspension was measured by a Coulter N4 Plus-Sizer to confirm that the mean diameter of the vesicle sample was close to the expected size (100 nm). The osmolalities of all solutions were measured in a cryoscopic osmometer (Wescor Inc., Logan, Utah) and adjusted to 0.21 Osmol/kg by the addition of sodium chloride, as necessary. Lipid concentration was measured as described previously (Stewart, Anal. Biochem. 104:10-14 (1989)).
Calcein leakage was determined by adding 2-4 μg of purified Bcl-xLΔC20 (5 μg/ml, 161 nM) to a solution of 100 mM NaCl, 10 mM HEPES (pH 5.0) containing the large unilamellar vesicles (50 μM final lipid concentration) described above. […]

[3] = test system: myeloma cell lines (RPMI-8226, U266, NCI-H929); assay type: cell-based, human; settings: 5 to 20 μg/ml
Procedure: Cell survival was assayed by exclusion of propidium iodide (PI) (10 mg/ml) by unfixed cells. Annexin V-FITC (Pharmingen) or 3,3′-dihexyloxacarbocyanine iodide (DiOC6(3)) (Molecular Probes) staining was analyzed together with PI to discriminate early apoptotic cells. Apoptotic cells were also measured as sub-G1 events among ethanol-fixed cells stained with […] PI. All cell samples were analyzed using a benchtop FACSCalibur® (Becton Dickinson, San Jose, Calif.) flow cytometer. Flow data were analyzed using MultiCycle AV software (Phoenix Flow Systems). For intracellular pH measurements, cell pellets were washed once and resuspended in 2 ml of HEPES-buffered medium (no phenol red and no serum). Carboxy-SNARF®-1 acetoxymethyl (AM) ester (Molecular Probes, 1 mM stock in DMSO, stored at −20° C.), a long wavelength fluorescent pH indicator, was added to a final concentration of 10 μM, and the cells were incubated for 30 min at 37° C. Following incubation with SNARF®-1 AM, cells were sedimented and the pellets were held on ice. Immediately before analysis, pellets were resuspended in Earle's balanced salt solution (experimental buffer) or high-[K^+] buffer containing nigericin (calibration samples).

T1 sequence (Q07817 1-213 limits assumed, stated change not applied): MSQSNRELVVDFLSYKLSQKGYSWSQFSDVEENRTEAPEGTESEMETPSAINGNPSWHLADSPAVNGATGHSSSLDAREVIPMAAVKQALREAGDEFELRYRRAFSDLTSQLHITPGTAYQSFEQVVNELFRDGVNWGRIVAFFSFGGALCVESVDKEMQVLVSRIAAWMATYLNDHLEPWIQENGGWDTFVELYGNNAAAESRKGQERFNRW

antimycin A
Rh-123 retained [1]: Less than 40%
Rh-123 retained (control mitochondria): greater than 80%
time until cell death readily apparent [2]: ≤ 2 h
Bcl-xL pore-forming activity (Bcl-xLΔC20): completely blocked
cytotoxicity, PI exclusion [3]: sensitive
